Converted amounts (≈) assume the structure as drawn.
These compounds were tested on Mycobacterium tuberculosis variant bovis (assay: In vitro minimum inhibitory concentration dissolved in DMSO against Mycobacterium bovis BCG using BACTEC 460 radiometric system).
Assay type: functional
Compound C=CCNC(=O)[C@@H]1C(=C)C(=O)O[C@H]1CCCCCC has an MIC99 of 12.5 µg/mL (≈ 47.1 µM).
C=C1C(=O)O[C@@H](CCCCCCCC)[C@@H]1C(=O)NCC(=O)O gave an MIC99 greater than 25 µg/mL.
For C=C1C(=O)O[C@@H](CCCCCCCC)[C@@H]1C(=O)NCC(=O)OC, the MIC99 was 25 µg/mL (≈ 76.8 µM).
Work on C=C1C(=O)O[C@@H](CCCCCCCC)C1C(=O)O (stereo not given in full) yielded an MIC99 greater than 25 µg/mL.
With C=C1C(=O)O[C@@H](CCCCCCCC)C1C(=O)OC (stereo not given in full) the MIC99 was greater than 25 µg/mL.
Compound C=C1C(=O)O[C@@H](CCCCCCCC)[C@@H]1C(=O)NNc1cccc(Cl)c1 has an MIC99 greater than 25 µg/mL.
In the case of C=CCNC(=O)[C@@H]1C(=C)C(=O)O[C@H]1CCCCCCCCCCCC, the MIC99 was 6.25 µg/mL (≈ 17.9 µM).
C=C1C(=O)O[C@@H](CCCCCCCC)[C@@H]1C(=O)NCc1ccccc1 was tested, and the MIC99 was 25 µg/mL (≈ 72.8 µM).
CCCC[C@@H]1OC(=O)C(=O)C1C(=O)OC (stereo not given in full) showed an MIC99 greater than 25 µg/mL.
C=CCNC(=O)[C@H]1[C@H](CCCCCCCC)OC(=O)[C@H]1C showed an MIC99 greater than 25 µg/mL.
Work on C=CCNC(=O)[C@H]1[C@H](CCCCCCCC)OC(=O)[C@@H]1C yielded an MIC99 greater than 25 µg/mL.
With C=CCNC(=O)[C@@H]1C(=C)C(=O)O[C@H]1CCCCCCCC the MIC99 was 12.5 µg/mL (≈ 42.6 µM).
C=C1C(=O)O[C@@H](CCCCCCCC)[C@@H]1C(=O)NCCO showed an MIC99 of 25 µg/mL (≈ 84.1 µM).
CCCCCCCCCC[C@@H]1OC(=O)C(=O)C1C(=O)OC (stereo not given in full) gave an MIC99 greater than 25 µg/mL.
CCCCCCCC[C@@H]1OC(=O)C(=O)C1C(=O)OC (stereo not given in full) showed an MIC99 greater than 25 µg/mL.
C=CCNC(=O)[C@@H]1C(=C)C(=O)O[C@H]1CCCC was tested, and the MIC99 was 12.5 µg/mL (≈ 52.7 µM).
In the case of C=C1C(=O)O[C@@H](CCCCCCCC)[C@@H]1C(=O)NC/C=C/CC(=O)OC, the MIC99 was 25 µg/mL (≈ 68.4 µM).
With C=CCNC(=O)OCCNC(=O)[C@@H]1C(=C)C(=O)O[C@H]1CCCCCCCC the MIC99 was greater than 25 µg/mL.
NNC(=O)c1ccncc1 [ISONIAZID] showed an MIC99 of 0.1 µg/mL (≈ 0.729 µM).

The compounds below were run on Mycobacterium tuberculosis variant bovis (assay: In vitro minimum inhibitory concentration dissolved in DMSO against Mycobacterium bovis BCG using BACTEC 460 radiometric system; Range=0.75-1.5 ug/mL).
Assay type: functional
CCCCCCCCCCS(=O)(=O)NC(C)=O showed an MIC99 of 1.5 µg/mL (≈ 5.69 µM).

Source: ChEMBL document CHEMBL1142794, “New alpha-methylene-gamma-butyrolactones with antimycobacterial properties” (2005)
